Assay results: PubChem BioAssay AID248 (DTP/NCI, 2004)
“And” between values parts separate entries of the source, which are not always exact repeats. Equal values may be shown once. Toxic doses and inconclusive results are not listed. Cut-off read from the data, not from the text of the source: active = T/C of 150% or more; inactive = T/C below 125%.

Tested on: L1210 leukemia ip in BDF1 mice, survival T/C
Test: NCI In Vivo Anticancer Drug Screen. Data for tumor model L1210 Leukemia (intraperitoneal) in B6D2F1 (BDF1) mice
Settings: endpoint: mean survival time, higher = longer survival
Outline: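 Each compound was tested against a transplantable tumor grown in mice. The endpoint was survival, with treated animals benchmarked against vehicle controls as a simple ratio.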

[1] = dose: 100.0 mg/kg/injection, schedule: Q04DX003 (ip), vehicle: saline
[2] = dose: 200.0 mg/kg/injection, schedule: Q04DX003 (ip), vehicle: saline
[3] = dose: 400.0 mg/kg/injection, schedule: Q04DX003 (ip), vehicle: saline
[4] = dose: 100.0 mg/kg/injection, schedule: Q01DX001 (ip), vehicle: saline
[5] = dose: 200.0 mg/kg/injection, schedule: Q01DX001 (ip), vehicle: saline
[6] = dose: 400.0 mg/kg/injection, schedule: Q01DX001 (ip), vehicle: saline
[7] = dose: 100.0 mg/kg/injection, schedule: Q01DX009 (ip), vehicle: saline with Tween-80
[8] = dose: 200.0 mg/kg/injection, schedule: Q01DX009 (ip), vehicle: saline with Tween-80
[9] = dose: 50.0 mg/kg/injection, schedule: Q01DX001 (ip), vehicle: saline
[10] = dose: 100.0 mg/kg/injection, schedule: Q01DX009 (ip), vehicle: Klucel (hydroxypropylcellulose) (HPC)
[11] = dose: 100.0 mg/kg/injection, schedule: Q04DX003 (ip), vehicle: Klucel (hydroxypropylcellulose) (HPC)
[12] = dose: 200.0 mg/kg/injection, schedule: Q01DX009 (ip), vehicle: Klucel (hydroxypropylcellulose) (HPC)
[13] = dose: 200.0 mg/kg/injection, schedule: Q04DX003 (ip), vehicle: Klucel (hydroxypropylcellulose) (HPC)
[14] = dose: 400.0 mg/kg/injection, schedule: Q01DX009 (ip), vehicle: Klucel (hydroxypropylcellulose) (HPC)
[15] = dose: 100.0 mg/kg/injection, schedule: Q01DX001 (ip), vehicle: carboxymethylcellulose (CMC)
[16] = dose: 200.0 mg/kg/injection, schedule: Q01DX001 (ip), vehicle: carboxymethylcellulose (CMC)
[17] = dose: 400.0 mg/kg/injection, schedule: Q01DX001 (ip), vehicle: carboxymethylcellulose (CMC)
[18] = dose: 100.0 mg/kg/injection, schedule: Q01DX009 (ip), vehicle: saline
[19] = dose: 75.0 mg/kg/injection, schedule: Q01DX001 (ip), vehicle: saline
[20] = dose: 150.0 mg/kg/injection, schedule: Q01DX001 (ip), vehicle: saline

Measured: T/C

C1CCC2C(C1)CCC1C2OCN2CCCCC12 (centres undefined)
inactive: dose: 100.0 mg/kg/injection, schedule: Q04DX002 (ip), vehicle: saline with Tween-80 104 % of control | [1] 98 % of control | dose: 200.0 mg/kg/injection, schedule: Q04DX002 (ip), vehicle: saline with Tween-80 101 % of control | [2] 98 % of control | dose: 400.0 mg/kg/injection, schedule: Q04DX002 (ip), vehicle: saline with Tween-80 96 % of control | [3] 98 % of control

CCN(CC)C(=O)O/N=C/c1ccccc1
inactive: [4] 94 % of control | [5] 91 % of control | [6] 96 % of control

O/N=C/c1cccc(/C=N/O)c1
inactive: dose: 50.0 mg/kg/injection, schedule: Q01DX009 (ip), vehicle: saline with Tween-80 94 % of control | dose: 50.0 mg/kg/injection, schedule: Q04DX003 (ip), vehicle: saline with Tween-80 95 % of control | [7] 98 % of control | dose: 100.0 mg/kg/injection, schedule: Q04DX003 (ip), vehicle: saline with Tween-80 97 % of control | [8] 102 % of control | dose: 200.0 mg/kg/injection, schedule: Q04DX003 (ip), vehicle: saline with Tween-80 100 % of control | dose: 400.0 mg/kg/injection, schedule: Q01DX009 (ip), vehicle: saline with Tween-80 95 % of control | dose: 400.0 mg/kg/injection, schedule: Q04DX003 (ip), vehicle: saline with Tween-80 93 % of control

CCCC(C(=O)O)C(CCC)C(=O)O (centres undefined)
inactive: [7] 92 % of control | [8] 96 % of control

c1ccc(CNCC2c3[nH]c4ccccc4c3CN2C2CCCCC2)cc1 (centres undefined)
inactive: dose: 75.0 mg/kg/injection, schedule: Q01DX001 (ip), vehicle: carboxymethylcellulose (CMC) 102 % of control | dose: 150.0 mg/kg/injection, schedule: Q01DX001 (ip), vehicle: carboxymethylcellulose (CMC) 90 % of control | dose: 300.0 mg/kg/injection, schedule: Q01DX001 (ip), vehicle: carboxymethylcellulose (CMC) 91 % of control

[C-]#[N+]C(C)(CC)c1ccccc1 (centres undefined)
inactive: dose: 6.25 mg/kg/injection, schedule: Q01DX009 (ip), vehicle: saline with Tween-80 93 % of control | dose: 6.25 mg/kg/injection, schedule: Q04DX003 (ip), vehicle: acetone 96 % of control | dose: 12.5 mg/kg/injection, schedule: Q01DX001 (ip), vehicle: acetone 91 % of control | dose: 12.5 mg/kg/injection, schedule: Q01DX009 (ip), vehicle: saline with Tween-80 95 % of control | dose: 12.5 mg/kg/injection, schedule: Q04DX003 (ip), vehicle: acetone 108 % of control | dose: 25.0 mg/kg/injection, schedule: Q01DX001 (ip), vehicle: acetone 96 % of control | dose: 25.0 mg/kg/injection, schedule: Q01DX009 (ip), vehicle: saline with Tween-80 95 % of control | dose: 25.0 mg/kg/injection, schedule: Q04DX003 (ip), vehicle: acetone 100 % of control

O=C1CSC(c2ccccc2)N1c1ccccc1 (centres undefined)
inactive: [9] 106 % of control | [4] 118 % of control | [5] 108 % of control | [6] 100 % of control

CCCCC(=O)OC1CC(C)CCC1C(C)C (centres undefined)
inactive: [10] 98 % of control | [11] 93 % of control | [12] 106 % of control | [13] 96 % of control | [14] 98 % of control | dose: 400.0 mg/kg/injection, schedule: Q04DX003 (ip), vehicle: Klucel (hydroxypropylcellulose) (HPC) 93 % of control

CS(=O)(=O)Oc1ccc2cc(Br)ccc2c1
inactive: [15] 102 % of control | [16] 100 % of control | [17] 107 % of control

Cc1c2oc3c(C)ccc(C(=O)NCCC(C)C)c3nc-2c(C(=O)NCCC(C)C)c(N)c1=O
inactive: dose: 10.0 mg/kg/injection, schedule: Q01DX001 (ip), vehicle: carboxymethylcellulose (CMC) 93 % of control

C=Cc1cc[n+](Cc2ccc(C[n+]3ccc(C=C)cc3)cc2)cc1
inactive: [15] 91 % of control | [16] 91 % of control | [17] 87 % of control

CC1(C)N=C(N)N=C(N)N1c1ccc(CCC(=O)Nc2cccc(S(=O)(=O)F)c2)cc1
inactive: dose: 0.8 mg/kg/injection, schedule: Q01DX009 (ip), vehicle: saline 98 % of control | dose: 4.0 mg/kg/injection, schedule: Q01DX009 (ip), vehicle: saline 106 % of control | dose: 20.0 mg/kg/injection, schedule: Q01DX009 (ip), vehicle: saline 108 % of control | dose: 25.0 mg/kg/injection, schedule: Q#A X018 (ip), vehicle: saline 119 % of control | dose: 50.0 mg/kg/injection, schedule: Q01DX009 (ip), vehicle: saline 111 % of control | dose: 50.0 mg/kg/injection, schedule: Q#A X018 (ip), vehicle: saline 113 % of control | [18] 112 % of control and 122 % of control | dose: 100.0 mg/kg/injection, schedule: Q#A X018 (ip), vehicle: saline 88 % of control

COC(=O)C1C(C)(C(=O)OC)N=NC1(c1ccccc1)c1ccccc1 (centres undefined)
inactive: dose: 100.0 mg/kg/injection, schedule: Q01DX001 (ip), vehicle: steriod suspending solution 101 % of control | dose: 200.0 mg/kg/injection, schedule: Q01DX001 (ip), vehicle: steriod suspending solution 104 % of control | dose: 400.0 mg/kg/injection, schedule: Q01DX001 (ip), vehicle: steriod suspending solution 98 % of control

O=C(O)C1C(C(=O)O)C2C=CC1C21CCCC1 (centres undefined)
inactive: [19] 97 % of control | [20] 97 % of control | dose: 300.0 mg/kg/injection, schedule: Q01DX001 (ip), vehicle: saline 95 % of control

CCCc1nc(N)[nH]c(=O)c1CCCCc1ccccc1
inactive: [1] 96 % of control | [2] 110 % of control | [3] 100 % of control

c1ccc(C(CCN2CCCC2)c2ccccn2)cc1 (centres undefined)
inactive: dose: 44.0 mg/kg/injection, schedule: Q01DX Z (ip), vehicle: saline 90 % of control | dose: 66.0 mg/kg/injection, schedule: Q01DX Z (ip), vehicle: saline 89 % of control

c1ccc2c(c1)C(=NN=C1c3ccccc3-c3ccccc31)c1ccccc1-2
inactive: [15] 97 % of control | [10] 93 % of control | [16] 94 % of control | [12] 104 % of control | [17] 94 % of control | [14] 96 % of control

C=CCC(C#N)(CCN(C)C)c1cccc2ccccc12 (centres undefined)
inactive: [10] 99 % of control | [12] 111 % of control

CCOC(=O)CCC(=O)NNc1ccccc1
inactive: dose: 50.0 mg/kg/injection, schedule: Q01DX001 (ip), vehicle: carboxymethylcellulose (CMC) 106 % of control | [15] 100 % of control | [16] 102 % of control | [17] 106 % of control

CC(C)c1ccc(NC(=O)Nc2cc(Cl)ccc2Cl)cc1
inactive: dose: 100.0 mg/kg/injection, schedule: Q01DX009 (ip), vehicle: gum acacia 89 % of control | dose: 200.0 mg/kg/injection, schedule: Q04DX003 (ip), vehicle: gum acacia 89 % of control | dose: 400.0 mg/kg/injection, schedule: Q01DX009 (ip), vehicle: gum acacia 89 % of control | dose: 400.0 mg/kg/injection, schedule: Q04DX003 (ip), vehicle: gum acacia 87 % of control

CCOC(=O)CN(C)C(=O)OCC
inactive: [9] 104 % of control | [4] 101 % of control | [5] 117 % of control | [6] 101 % of control

CCC1(C)N=C(N)N=C(N)N1c1ccc(Cl)c(Cl)c1 (centres undefined)
inactive: dose: 37.5 mg/kg/injection, schedule: Q04DX003 (ip), vehicle: saline 111 % of control | [19] 103 % of control | dose: 75.0 mg/kg/injection, schedule: Q04DX003 (ip), vehicle: saline 111 % of control | [20] 101 % of control | dose: 150.0 mg/kg/injection, schedule: Q04DX003 (ip), vehicle: saline 105 % of control

CC(=O)OC1CCC2(C)C3=C(CCC2C1(C)C)C1CCC(C(C)CCC=C(C)C)C1(C)CC3 (centres undefined)
inactive: [11] 96 % of control | [13] 96 % of control

O=[N+]([O-])c1cccc(S(=O)(=O)Nc2cccc(C(F)(F)F)c2)c1
inactive: [18] 96 % of control | dose: 200.0 mg/kg/injection, schedule: Q01DX009 (ip), vehicle: saline 104 % of control | dose: 400.0 mg/kg/injection, schedule: Q01DX009 (ip), vehicle: saline 96 % of control

O=C1NNCc2c1sc1ccccc21
inactive: [4] 98 % of control | [5] 98 % of control | [6] 102 % of control
